Key:
[1] = molecular target: Factor XIa (Homo sapiens, UniProt P03951); assay: Factor XIa inhibition assay (FLINT) utilizing a fluorophore-quencher pair peptide substrate 5Fam-[…]-K5Tamra; assay type: biochemical; settings: kinetic (KIN) reads; values in nM; read-out: FXIa KIN Inh IC50
Outline: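 Compounds were tested as 11-point 3-fold dilutions from 100 nM (2% DMSO). They were preincubated 30 min with FXIa in 50 mM Tris pH 7.5, 5 mM CaCl2, then 15 μM fluorophore-quencher peptide was added. Cleavage was followed at 485/520 nm over 30 min, and IC50 was derived by 4-parameter logistic fit.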

[2] = molecular target: human plasma kallikrein (Homo sapiens, UniProt P03952); assay: Kallikrein inhibition assay (FLINT) utilizing a quenched AMC peptide substrate Z-Gly-Pro-Arg-AMC; assay type: biochemical; settings: kinetic (KIN) reads; values in nM; read-out: Kallikrein KIN Inh IC50
Outline: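 IC50 from a 4-parameter logistic fit of % inhibition from 11 concentrations (3-fold, top 1 μM, 2% DMSO). Compound pre-incubated 30 min with 2 nM enzyme in Tris pH 7.5, NaCl, CaCl2, BSA, CHAPS, then 50 μM AMC peptide substrate added. Fluorescence (340/440 nm) followed every 5 min for 30 min at room temperature.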

Sequence of Factor XIa (P03951 388-625 limits assumed): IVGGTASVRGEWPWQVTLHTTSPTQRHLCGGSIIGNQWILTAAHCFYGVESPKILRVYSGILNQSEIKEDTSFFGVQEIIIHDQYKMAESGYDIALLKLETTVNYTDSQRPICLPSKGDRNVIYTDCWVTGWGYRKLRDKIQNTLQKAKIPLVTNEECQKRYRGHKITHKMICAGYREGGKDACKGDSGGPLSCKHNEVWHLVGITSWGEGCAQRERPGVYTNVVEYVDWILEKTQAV
Sequence of Factor XIa (P03951 19-387 partner limits assumed): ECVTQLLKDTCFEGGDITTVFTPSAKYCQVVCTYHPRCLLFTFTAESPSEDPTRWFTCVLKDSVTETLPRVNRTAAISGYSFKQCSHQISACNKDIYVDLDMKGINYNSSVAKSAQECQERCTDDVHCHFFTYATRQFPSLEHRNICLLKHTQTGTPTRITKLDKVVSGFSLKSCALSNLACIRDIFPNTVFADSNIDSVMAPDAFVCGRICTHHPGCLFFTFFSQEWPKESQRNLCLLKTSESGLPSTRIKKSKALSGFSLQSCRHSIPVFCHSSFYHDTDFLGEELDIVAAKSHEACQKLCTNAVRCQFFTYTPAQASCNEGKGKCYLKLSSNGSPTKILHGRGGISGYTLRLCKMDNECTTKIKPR
Sequence of human plasma kallikrein (P03952 391-638 limits assumed): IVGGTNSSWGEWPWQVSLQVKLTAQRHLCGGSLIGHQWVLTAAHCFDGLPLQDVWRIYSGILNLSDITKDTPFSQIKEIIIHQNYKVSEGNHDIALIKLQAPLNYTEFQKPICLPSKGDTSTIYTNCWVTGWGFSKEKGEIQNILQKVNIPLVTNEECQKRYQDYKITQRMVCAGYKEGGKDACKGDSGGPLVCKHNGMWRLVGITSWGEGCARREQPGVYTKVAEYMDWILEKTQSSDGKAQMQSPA
Sequence of human plasma kallikrein (P03952 20-390 partner limits assumed): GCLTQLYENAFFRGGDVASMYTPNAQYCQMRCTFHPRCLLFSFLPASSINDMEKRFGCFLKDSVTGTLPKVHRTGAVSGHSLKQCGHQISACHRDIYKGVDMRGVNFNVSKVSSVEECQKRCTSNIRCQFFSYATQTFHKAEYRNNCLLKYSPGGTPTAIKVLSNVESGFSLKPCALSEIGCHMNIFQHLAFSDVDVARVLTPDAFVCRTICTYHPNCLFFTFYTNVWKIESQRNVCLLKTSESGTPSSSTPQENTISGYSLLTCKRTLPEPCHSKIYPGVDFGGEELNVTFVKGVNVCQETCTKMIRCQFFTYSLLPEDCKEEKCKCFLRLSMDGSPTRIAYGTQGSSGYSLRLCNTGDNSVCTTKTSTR

SMILES | IC50 [1] [nM] | IC50 [2] [nM]
C[C@@H]1C[C@@H](c2ncc(-c3ccc(N)nc3F)[nH]2)n2c1cc(-c1c(-n3cnnn3)ccc(Cl)c1F)cc2=O [Example 66, (1R,3S)-3-(5-(6-Amino-2-fluoropyridin-3-yl)-1H-imidazol-2-yl)-7-(3-chloro-2-fluoro-6-(1H-tetrazol-1-yl)phenyl)-1-methyl-2,3-dihydroindolizin-5(1H)-one] | 0.4 | 3.6
C[C@H]1C[C@@H](c2ncc(-c3ccnn3C)[nH]2)n2c1nc(-c1c(-n3cnnn3)ccc(Cl)c1F)cc2=O (stereo in doubt) [Example 144, (6S*,8S*)-2-(3-Chloro-2-fluoro-6-(1H-tetrazol-1-yl)phenyl)-8-methyl-6-(5-(1-methyl-1H-pyrazol-5-yl)-1H-imidazol-2-yl)-7,8-dihydropyrrolo[1,2-a]pyrimidin-4(6H)-one] | 62.1 | 246
C[C@H]1C[C@@H](c2ncc(-c3ccnc(C(F)(F)F)c3)[nH]2)n2c1nc(-c1c(-n3cnnn3)ccc(Cl)c1F)cc2=O (relative stereo) [Example 148, (6S*,8S*)-2-(3-Chloro-2-fluoro-6-(1H-tetrazol-1-yl)phenyl)-8-methyl-6-(5-(2-(trifluoromethyl)pyridin-4-yl)-1H-imidazol-2-yl)-7,8-dihydropyrrolo[1,2-a]pyrimidin-4(6H)-one] | 47.6 | 94
COc1cc(-c2cnc([C@H]3C[C@H](C)c4nc(-c5c(-n6cnnn6)ccc(Cl)c5F)cc(=O)n43)[nH]2)ccn1 (stereo in doubt) [Example 100, (6*R,8*S)-2-(3-Chloro-2-fluoro-6-(1H-tetrazol-1-yl)phenyl)-6-(5-(2-methoxypyridin-4-yl)-1H-imidazol-2-yl)-8-methyl-7,8-dihydropyrrolo[1,2-a]pyrimidin-4(6H)-one] | 6.9 | 7.6
C[C@@H]1C[C@@H](c2ncc(-c3ccnc(CO)c3F)[nH]2)n2c1cc(-c1c(-n3cnnn3)ccc(Cl)c1F)cc2=O (relative stereo) [Example 1, (1R*,3S*)-7-(3-Chloro-2-fluoro-6-(1H-tetrazol-1-yl)phenyl)-3-(5-(3-fluoro-2-(hydroxymethyl)pyridin-4-yl)-1H-imidazol-2-yl)-1-methyl-2,3-dihydroindolizin-5(1H)-one] | 11 | 47

Next, values leading:

IC50 [1] [nM] | IC50 [2] [nM] | SMILES
111 | 284 | C[C@@H]1C[C@H](c2ncc(-c3cnc(N)nc3)[nH]2)n2c1nc(-c1c(-n3cnnn3)ccc(Cl)c1F)cc2=O (stereo in doubt) [Example 114, (6*R,8*R)-6-(5-(2-Aminopyrimidin-5-yl)-1H-imidazol-2-yl)-2-(3-chloro-2-fluoro-6-(1H-tetrazol-1-yl)phenyl)-8-methyl-7,8-dihydropyrrolo[1,2-a]pyrimidin-4(6H)-one]
92.2 | 669 | Cc1nc(N)sc1-c1cnc([C@@H]2CC3(CC3)c3nc(-c4c(-n5cnnn5)ccc(Cl)c4F)cc(=O)n32)[nH]1 [Example 131, (S)-6′-(5-(2-Amino-4-methylthiazol-5-yl)-1H-imidazol-2-yl)-2′-(3-chloro-2-fluoro-6-(1H-tetrazol-1-yl)phenyl)-6′,7′-dihydro-4′H-spiro[cyclopropane-1,8′-pyrrolo[1,2-a]pyrimidin]-4′-one]
0.6 | 14.1 | Nc1ccc(-c2cnc([C@@H]3CC4(CC4)c4cc(-c5c(-n6cnnn6)ccc(Cl)c5F)cc(=O)n43)[nH]2)c(F)n1 [Example 25, (S)-3′-(5-(6-Amino-2-fluoropyridin-3-yl)-1H-imidazol-2-yl)-7′-(3-chloro-2-fluoro-6-(1H-tetrazol-1-yl)phenyl)-2′,3′-dihydro-5′H-spiro[cyclopropane-1,1′-indolizin]-5′-one]
1.5 | 27.7 | C[C@H]1C[C@H](c2ncc(-c3ccnc(N)c3F)[nH]2)n2c1nc(-c1c(-n3cnnn3)ccc(Cl)c1F)cc2=O (relative stereo) [Example 87, (6R*,8S*)-6-(5-(2-amino-3-fluoropyridin-4-yl)-1H-imidazol-2-yl)-2-(3-chloro-2-fluoro-6-(1H-tetrazol-1-yl)phenyl)-8-methyl-7,8-dihydropyrrolo[1,2-a]pyrimidin-4(6H)-one]

— US20230097157A1, “Bicyclic Pyridin-2-one and pyrimidin-4-one Derivatives Useful As a Factor XIa Inhibitors” (Janssen Pharmaceutica NV, priority 2021, published 2023)
